System: patients after acute myocardial infarction
Assay: Life quality, Seattle Angina Questionnaire (SAQ), same clinical trial
Format: in vivo, human
Details: FAS
Excerpt: 3508 patients who were in accordance with the diagnostic standards of AMI for 28 days to 2 years and differentiated as Qi deficiency and blood stagnation syndrome by TCM were studied. 0.5 g Chinese medicine composition prepared by the method of EXAMPLE 1 (Coded as QSYQ) was administrated half an hour after meal, 3 times per day.
There were 19 questions in the Seattle angina questionnaire (SAQ), including 5 parts: physical limitation (PL), anginal stability (AS), anginal frequency (AF), treatment satisfaction (TS) and disease perception (DP). After being given necessary explanation by doctors, the questions were answered independently by patients.
They included the overall survival time, angina pectoris score, TCM symptom score and life quality score, where angina pectoris score, TCM symptom score and life quality score were evaluated at randomization, in 1st, 3rd, 6th, 9th, 12th month after treatment and 18th month after follow-up.
All evaluation results of SAQ were described during the period of observation, and Wilcoxon rank sum test was used for inter-group comparison.
The evaluation results in the SAQ were depicted in different observations, and inter-group comparison was tested by Wilcoxon Rank-sum test.

CC(=O)Oc1ccccc1C(=O)O [Control group, aspirine]
SAQ 4th question, 1-3 times per day: number of patients (6 months after treatment): 82
SAQ 4th question, <1 time per week: % of patients (6 months after treatment): (11.98%)
SAQ 4th question, <1 time per week: number of patients (6 months after treatment): 209
SAQ 4th question, Not used: % of patients (6 months after treatment): (58.37%)
SAQ 4th question, Not used: number of patients (6 months after treatment): 1018
SAQ 4th question, ≧3 times per week: % of patients (6 months after treatment): (7.28%)
SAQ 4th question, ≧3 times per week: number of patients (6 months after treatment): 127
SAQ 4th question, ≧4 times per day: % of patients (6 months after treatment): (0.11%)
SAQ 4th question, ≧4 times per day: number of patients (6 months after treatment): 2
SAQ 5th question, 1-2 times per week: % of patients (6 months after treatment): (26.38%)
SAQ 5th question, 1-2 times per week: number of patients (6 months after treatment): 460
SAQ 5th question, 1-3 times per day: % of patients (6 months after treatment): (11.53%)
SAQ 5th question, 1-3 times per day: number of patients (6 months after treatment): 201
SAQ 5th question, <1 time per week: % of patients (6 months after treatment): (28.10%)
SAQ 5th question, <1 time per week: number of patients (6 months after treatment): 490
SAQ 5th question, No onset: % of patients (6 months after treatment): (4.30%)
SAQ 5th question, No onset: number of patients (6 months after treatment): 75
SAQ 5th question, ≧3 times per week: % of patients (6 months after treatment): (28.84%)
SAQ 5th question, ≧3 times per week: number of patients (6 months after treatment): 503
SAQ 5th question, ≧4 times per day: % of patients (6 months after treatment): (0.86%)
SAQ 5th question, ≧4 times per day: number of patients (6 months after treatment): 15
SAQ 6th question, Dissatisfied: % of patients (6 months after treatment): (0.17%)
SAQ 6th question, Dissatisfied: number of patients (6 months after treatment): 3
SAQ 6th question, Highly satisfied: % of patients (6 months after treatment): (21.62%)
SAQ 6th question, Highly satisfied: number of patients (6 months after treatment): 377
SAQ 6th question, Mostly dissatisfied: % of patients (6 months after treatment): (1.95%)
SAQ 6th question, Mostly dissatisfied: number of patients (6 months after treatment): 34
SAQ 6th question, Mostly satisfied: % of patients (6 months after treatment): (55.73%)
SAQ 6th question, Mostly satisfied: number of patients (6 months after treatment): 972
SAQ 6th question, Partly satisfied: % of patients (6 months after treatment): (20.53%)
SAQ 6th question, Partly satisfied: number of patients (6 months after treatment): 358
SAQ 7th question, Dissatisfied: % of patients (6 months after treatment): (0.11%)
SAQ 7th question, Dissatisfied: number of patients (6 months after treatment): 2
SAQ 7th question, Highly satisfied: % of patients (6 months after treatment): (25.03%)
SAQ 7th question, Highly satisfied: number of patients (6 months after treatment): 436
SAQ 7th question, Mostly dissatisfied: % of patients (6 months after treatment): (1.32%)
SAQ 7th question, Mostly dissatisfied: number of patients (6 months after treatment): 23
SAQ 7th question, Mostly satisfied: % of patients (6 months after treatment): (58.21%)
SAQ 7th question, Mostly satisfied: number of patients (6 months after treatment): 1014
SAQ 7th question, Partly satisfied: % of patients (6 months after treatment): (15.33%)
SAQ 7th question, Partly satisfied: number of patients (6 months after treatment): 267
SAQ Question 1-1 Mildly limited, number of patients (6 months after treatment): 29
SAQ Question 1-1 Mildly limited, percent of patients (6 months after treatment): (1.66%)
SAQ Question 1-1 Moderately limited, number of patients (6 months after treatment): 4
SAQ Question 1-1 Moderately limited, percent of patients (6 months after treatment): (0.23%)
SAQ Question 1-1 Not limited, number of patients (6 months after treatment): 1638
SAQ Question 1-1 Not limited, percent of patients (6 months after treatment): (93.92%)
SAQ Question 1-1 Other reasons, number of patients (6 months after treatment): 3
SAQ Question 1-1 Other reasons, percent of patients (6 months after treatment): (0.17%)
SAQ Question 1-1 Severely limited, number of patients (6 months after treatment): 1
SAQ Question 1-1 Severely limited, percent of patients (6 months after treatment): (0.06%)
SAQ Question 1-1 Slightly limited, number of patients (6 months after treatment): 69
SAQ Question 1-1 Slightly limited, percent of patients (6 months after treatment): (3.96%)
SAQ Question 1-2 Mildly limited, number of patients (6 months after treatment): 27
SAQ Question 1-2 Mildly limited, percent of patients (6 months after treatment): (1.55%)
SAQ Question 1-2 Moderately limited, number of patients (6 months after treatment): 8
SAQ Question 1-2 Moderately limited, percent of patients (6 months after treatment): (0.46%)
SAQ Question 1-2 Not limited, number of patients (6 months after treatment): 1615
SAQ Question 1-2 Not limited, percent of patients (6 months after treatment): (92.60%)
SAQ Question 1-2 Other reasons, number of patients (6 months after treatment): 6
SAQ Question 1-2 Other reasons, percent of patients (6 months after treatment): (0.34%)
SAQ Question 1-2 Severely limited, number of patients (6 months after treatment): 1
SAQ Question 1-2 Severely limited, percent of patients (6 months after treatment): (0.06%)
SAQ Question 1-2 Slightly limited, number of patients (6 months after treatment): 87
SAQ Question 1-2 Slightly limited, percent of patients (6 months after treatment): (4.99%)
SAQ Question 1-6: Mildly limited, patients (%) (6 months after treatment): (16.49%)
SAQ Question 1-6: Moderately limited, patients (%) (6 months after treatment): (11.78%)
SAQ Question 1-6: Not limited, patients (%) (6 months after treatment): (34.20%)
SAQ Question 1-6: Other reasons, patients (%) (6 months after treatment): (0.98%)
SAQ Question 1-6: Severely limited, patients (%) (6 months after treatment): (3.85%)
SAQ Question 1-6: Slightly limited, patients (%) (6 months after treatment): (32.70%)
SAQ Question 1-7: Mildly limited, patients (%) (6 months after treatment): (21.23%)
SAQ Question 1-7: Moderately limited, patients (%) (6 months after treatment): (13.48%)
SAQ Question 1-7: Not limited, patients (%) (6 months after treatment): (14.52%)
SAQ Question 1-7: Other reasons, patients (%) (6 months after treatment): (3.53%)
SAQ Question 1-7: Severely limited, patients (%) (6 months after treatment): (15.33%)
SAQ Question 1-7: Slightly limited, patients (%) (6 months after treatment): (31.93%)
SAQ Question 1-8: Mildly limited, patients (%) (6 months after treatment): (25.30%)
SAQ Question 1-8: Moderately limited, patients (%) (6 months after treatment): (16.42%)
SAQ Question 1-8: Not limited, patients (%) (6 months after treatment): (10.62%)
SAQ Question 1-8: Other reasons, patients (%) (6 months after treatment): (3.77%)
SAQ Question 1-8: Severely limited, patients (%) (6 months after treatment): (19.38%)
SAQ Question 1-8: Slightly limited, patients (%) (6 months after treatment): (24.49%)
8th question: Mostly satisfied, patients (%) (6 months after treatment, second line of the scale): (2.24%)
8th question: Dissatisfied, patients (%) (9 months after treatment): (0.34%)
8th question: Highly satisfied, patients (%) (9 months after treatment): (22.36%)
8th question: Mostly dissatisfied, patients (%) (9 months after treatment): (1.89%)
8th question: Mostly satisfied, patients (%) (9 months after treatment): (58.31%)
8th question: Partly satisfied, patients (%) (9 months after treatment): (17.09%)
9th question: Few, patients (%) (9 months after treatment): (37.79%)
9th question: Mild, patients (%) (9 months after treatment): (33.08%)
9th question: Moderate, patients (%) (9 months after treatment): (8.77%)
9th question: Severe, patients (%) (9 months after treatment): (0.97%)
9th question: Uneffective, patients (%) (9 months after treatment): (19.38%)
10th question: Dissatisfied, patients (%) (9 months after treatment): (19.55%)
10th question: Highly satisfied, patients (%) (9 months after treatment): (5.73%)
10th question: Mostly dissatisfied, patients (%) (9 months after treatment): (20.47%)
10th question: Mostly satisfied, patients (%) (9 months after treatment): (28.84%)
10th question: Partly satisfied, patients (%) (9 months after treatment): (25.40%)
11th question: Continuously worried, patients (%) (9 months after treatment): (3.44%)
11th question: No worried, patients (%) (9 months after treatment): (6.02%)
11th question: Occasionally worried, patients (%) (9 months after treatment): (41.80%)
11th question: Often worried, patients (%) (9 months after treatment): (12.33%)
11th question: Seldom worried, patients (%) (9 months after treatment): (36.41%)
SAQ 4th question, 1-2 times per week: % of patients (9 months after treatment): (15.60%)
SAQ 4th question, 1-2 times per week: number of patients (9 months after treatment): 272
SAQ 4th question, 1-3 times per week: % of patients (9 months after treatment): (4.30%)
SAQ 4th question, 1-3 times per week: number of patients (9 months after treatment): 75
SAQ 4th question, <1 time per week: % of patients (9 months after treatment): (15.14%)
SAQ 4th question, <1 time per week: number of patients (9 months after treatment): 264
SAQ 4th question, Not used: % of patients (9 months after treatment): (59.69%)
SAQ 4th question, Not used: number of patients (9 months after treatment): 1041
SAQ 4th question, ≧3 times per week: % of patients (9 months after treatment): (5.16%)
SAQ 4th question, ≧3 times per week: number of patients (9 months after treatment): 90
SAQ 4th question, ≧4 times per day: % of patients (9 months after treatment): (0.11%)
SAQ 4th question, ≧4 times per day: number of patients (9 months after treatment): 2
SAQ 5th question, 1-2 times per week: % of patients (9 months after treatment): (28.67%)
SAQ 5th question, 1-2 times per week: number of patients (9 months after treatment): 500
SAQ 5th question, 1-3 times per day: % of patients (9 months after treatment): (7.97%)
SAQ 5th question, 1-3 times per day: number of patients (9 months after treatment): 139
SAQ 5th question, <1 time per week: % of patients (9 months after treatment): (28.56%)
SAQ 5th question, <1 time per week: number of patients (9 months after treatment): 498
SAQ 5th question, No onset: % of patients (9 months after treatment): (4.47%)
SAQ 5th question, No onset: number of patients (9 months after treatment): 78
SAQ 5th question, ≧3 times per week: % of patients (9 months after treatment): (29.42%)
SAQ 5th question, ≧3 times per week: number of patients (9 months after treatment): 513
SAQ 5th question, ≧4 times per day: % of patients (9 months after treatment): (0.92%)
SAQ 5th question, ≧4 times per day: number of patients (9 months after treatment): 16
SAQ 6th question, Dissatisfied: % of patients (9 months after treatment): (0.23%)
SAQ 6th question, Dissatisfied: number of patients (9 months after treatment): 4
SAQ 6th question, Highly satisfied: % of patients (9 months after treatment): (23.62%)
SAQ 6th question, Highly satisfied: number of patients (9 months after treatment): 412
SAQ 6th question, Mostly dissatisfied: % of patients (9 months after treatment): (1.95%)
SAQ 6th question, Mostly dissatisfied: number of patients (9 months after treatment): 34
SAQ 6th question, Mostly satisfied: % of patients (9 months after treatment): (58.77%)
SAQ 6th question, Mostly satisfied: number of patients (9 months after treatment): 1025
SAQ 6th question, Partly satisfied: % of patients (9 months after treatment): (15.42%)
SAQ 6th question, Partly satisfied: number of patients (9 months after treatment): 269
SAQ 7th question, Dissatisfied: % of patients (9 months after treatment): (0.11%)
SAQ 7th question, Dissatisfied: number of patients (9 months after treatment): 2
SAQ 7th question, Highly satisfied: % of patients (9 months after treatment): (27.21%)
SAQ 7th question, Highly satisfied: number of patients (9 months after treatment): 474
SAQ 7th question, Most dissatisfied: % of patients (9 months after treatment): (1.09%)
SAQ 7th question, Most dissatisfied: number of patients (9 months after treatment): 19
SAQ 7th question, Mostly satisfied: % of patients (9 months after treatment): (59.53%)
SAQ 7th question, Mostly satisfied: number of patients (9 months after treatment): 1037
SAQ 7th question, Partly satisfied: % of patients (9 months after treatment): (12.06%)
SAQ 7th question, Partly satisfied: number of patients (9 months after treatment): 210
SAQ Question 1-1 Mildly limited, number of patients (9 months after treatment): 25
SAQ Question 1-1 Mildly limited, percent of patients (9 months after treatment): (1.43%)
SAQ Question 1-1 Moderately limited, number of patients (9 months after treatment): 5
SAQ Question 1-1 Moderately limited, percent of patients (9 months after treatment): (0.29%)
SAQ Question 1-1 Not limited, number of patients (9 months after treatment): 1643
SAQ Question 1-1 Not limited, percent of patients (9 months after treatment): (94.21%)
SAQ Question 1-1 Other reasons, number of patients (9 months after treatment): 3
